Experiment [1] concerns CD20-positive Burkitt's Lymphoma human tumor cell line Raji. Nature of the experiment: Cellular binding to Raji cells (flow cytometry, MFI). The note with it: 30 minutes at 4° C. As for the experimental part: The CD20-positive Burkitt's Lymphoma human tumor cell line Raji (DSMZ, the German collection of Microorganisms and cell cultures GmbH) was used for in vitro experiments. Raji cells were cultured in complete growth medium (CGM): RPMI-1640 (Lonza) supplemented with 10% Heat-inactivated (HI) Fetal Bovine Serum (FBS) (Gibco) and 80 U/mL Penicillin-Streptomycin solution (Lonza). Raji cells were maintained at 37° C. in a humidified incubator containing 5% CO2 and sub-cultured twice a week. […] Fluorescence intensities were determined by flow cytometry using the NovoCyte (Agilent) and determined as the median fluorescence intensity (MFI). […] EC50 values were calculated in GraphPad Prism as the concentration in μg/mL that gives a response halfway between bottom and top of the curve. […]
These ADCs were tested for their ability to bind Raji cells (using a binding assay, as described in Example 5) and to activate Vdelta2 gammadelta T-cells after overnight incubation with CD20-positive Raji cells. The pretreated Raji cells were cocultured with peripheral blood mononuclear cells (PBMCs) and activation (IFNγ production) and degranulation (CD107a) of Vdelta2 gammadelta T-cells and NK-cells was determined using multicolor flow cytometry, as described for the Functional assay in Example 5.

Experiment [2] deals with Vdelta2 gammadelta T-cells. Nature of the experiment: Functional assay: Vdelta2 gammadelta T-cell activation (CD107a, IFNγ) after co-culture of PBMCs with pretreated Raji cells. It is filed as cell-based, human. More on the design: key to IFNγ production by Vdelta2 populations, EC50: †: incomplete curve saturation (no EC50 calculation possible); ††: low number of IFNγ-positive cells, no reliable EC50 calculation possible. The note with it: Donor two; Raji cells pre-treated overnight, 6 hours coculture with PBMCs. As for the experimental part:
Multiple synthesized linker drug compounds were conjugated to rituximab (anti-CD20) and resulting ADCs were tested for their ability to bind Raji cells and to activate Vdelta2 gammadelta T-cells after overnight incubation with CD20-positive Raji cells. The linker drug compounds that were conjugated to rituximab, and resulting ADCs, are within the list reflected in Table 1. The pretreated Raji cells were cocultured with peripheral blood mononuclear cells (PBMCs) and activation (IFNγ production) and degranulation (CD107a) of Vdelta2 gammadelta T-cells and NK-cells was determined using multicolor flow cytometry.
For stimulation with ADCs according to the invention, Raji cells were harvested, diluted to a concentration of 5×10^6 cells/mL and 50 μL (equivalent to 250,000 cells/well) of this cell suspension was seeded into a 96-well plate. […] The recovered PBMCs were harvested, counted and diluted to a concentration of 10×10^6 cells/mL in CGM, and 50 μL/well (equivalent to 0.5×10^6 cells/well) was added to the Raji cells. […]

The subject of a further experiment is NK-cells. The note with it: shown in WO2023/275025; cited from earlier work.

Regarding “Rituximab: anti-CD20 antibody rituximab [reference compound]”, the “EC50 binding to Raji cells” value in experiment [1] was found to be 3.30 µg/mL. Also, in experiment [2], the “CD107a production by Vdelta2 populations, EC50” value was 0.094 µg/mL and the “IFNγ production by Vdelta2 populations, EC50” value is “††”. Besides, in the experiment on NK-cells, the “Activation of NK-cells (in words)” value is “induced activation of NK-cells”.

The values above are taken from patent US20260207768A1, “NOVEL LINKER DRUGS COMPRISING PHOSPHOANTIGENS, NOVEL CONJUGATES AND THEIR USE IN THERAPY” (priority 2022, published 2026).
